Source: the NIST ThermoML archive (doi:10.1016/j.tca.2012.02.020)
± gives the expanded uncertainty stated by the source.

How the values were obtained:
[1] = Crystal; visual observation
[2] = Molar enthalpy of transition or fusion; settings: Crystal; DSC

| Structure (SMILES) | Normal melting temperature [1] [°C] | Molar enthalpy of transition or fusion [2] [kcal/mol] |
| --- | --- | --- |
| c1ccc(-c2ccccc2)cc1 [biphenyl] | 70.50 ± 1 | 4.61 ± 0.143 |
| Nc1cccc(O)c1 [3-hydroxybenzenamine] | 123.00 ± 1 | 6.6 ± 0.191 |
| O=Cc1cccc(O)c1 [3-hydroxybenzaldehyde] | 103.00 ± 1 | 5.76 ± 0.167 |
| Clc1ccc(Br)cc1 [1-bromo-4-chlorobenzene] | 65.00 ± 1 | 4.76 ± 0.143 |
